# In US12655116B2, “Substituted isophthalic acid diamides” (Bayer Aktiengesellschaft, priority 2020, dated 2026):
# What was measured:
# ABUTH [1] = assay: Pre-emergence herbicidal action against ABUTH; assay type: in vivo, Abutilon theophrasti; settings: for Pre-emergence action against ABUTH (herbicidal activity): 80 g/ha, scored visually after 3 weeks vs untreated controls (100% = plants have died, 0% = like control plants); for Pre-emergence action against ABUTH (herbicidal activity in percent): dosage 20 g/ha, scored visually after 3 weeks vs untreated controls, 100% = plants have died, 0% = like control plants
# Outline: (§1)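 Herbicidal effect was assessed 3 weeks after treatment by visual comparison with untreated controls, 100% denoting dead plants. Aqueous WP or EC preparations had been applied at 600 to 800 l/ha with 0.2% wetting agent to the soil covering freshly sown seeds.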
# ALOMY [2] = assay: Pre-emergence herbicidal action against ALOMY; assay type: in vivo, Alopecurus myosuroides; settings: for Pre-emergence action against ALOMY: 20 g/ha, scored visually after 3 weeks, 100% = plants have died, 0% = like control plants; for Pre-emergence action against ALOMY (herbicidal activity): 80 g/ha, scored visually after 3 weeks vs untreated controls (100% = plants have died, 0% = like control plants)
# Outline: as §1
# AMARE [3] = assay: Pre-emergence herbicidal action against AMARE; assay type: in vivo, Amaranthus retroflexus
# Outline: as §1
# AVEFA = assay: Pre-emergence herbicidal action against AVEFA; assay type: in vivo, Avena fatua; settings: 80 g/ha, pre-emergence
# Outline: as §1
# ECHCG [4] = assay: Pre-emergence herbicidal action against ECHCG; assay type: in vivo, Echinochloa crus-galli; settings: 80 g/ha
# Outline: as §1
# MATIN [5] = assay: Pre-emergence herbicidal action against MATIN; assay type: in vivo, Matricaria inodora
# Outline: as §1
# PHBPU [6] = assay: Pre-emergence herbicidal action against PHBPU; assay type: in vivo, Pharbitis purpurea; settings: dosage 80 g/ha
# Outline: as §1
# POLCO = assay: Pre-emergence herbicidal action against POLCO; assay type: in vivo, Polygonum convolvulus
# Outline: as §1
# SETVI [7] = assay: Pre-emergence herbicidal action against SETVI; assay type: in vivo, Setaria viridis; settings: dosage 80 g/ha
# Outline: as §1
# VIOTR [8] = assay: Pre-emergence herbicidal action against VIOTR; assay type: in vivo, Viola tricolor
# Outline: as §1
# ABUTH [9] = assay: Post-emergence herbicidal action against ABUTH; assay type: in vivo, Abutilon theophrasti; settings: visual assessment about 3 weeks after treatment vs untreated controls
# Outline: (§2)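 Post-emergence greenhouse test; one-leaf stage, 2–3 wk post-sowing, sandy loam. Foliar spray of WP/EC in water, 600–800 l/ha, +0.2% wetting agent. Visual % action at ~3 wk vs untreated (100% = plants dead).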
# ALOMY [10] = assay: Post-emergence herbicidal action against ALOMY; assay type: in vivo, Alopecurus myosuroides; settings: dosage 20 g/ha, visual assessment about 3 weeks after treatment vs untreated controls
# Outline: as §2
# AMARE [11] = assay: Post-emergence herbicidal action against AMARE; assay type: in vivo, Amaranthus retroflexus; settings: 20 g/ha, visual assessment about 3 weeks after treatment, 100% = plants have died, 0% = like control plants
# Outline: as §2
# ECHCG [12] = assay: Post-emergence herbicidal action against ECHCG; assay type: in vivo, Echinochloa crus-galli
# Outline: as §2
# MATIN [13] = assay: Post-emergence herbicidal action against MATIN; assay type: in vivo, Matricaria inodora
# Outline: as §2
# PHBPU [14] = assay: Post-emergence herbicidal action against PHBPU; assay type: in vivo, Pharbitis purpurea
# Outline: as §2
# SETVI [15] = assay: Post-emergence herbicidal action against SETVI; assay type: in vivo, Setaria viridis
# Outline: as §2
# VERPE [16] = assay: Post-emergence herbicidal action against VERPE; assay type: in vivo, Veronica persica
# Outline: as §2
# VIOTR [17] = assay: Post-emergence herbicidal action against VIOTR; assay type: in vivo, Viola tricolor; settings: 20 g/ha
# Outline: as §2
# VERPE [18] = assay: Pre-emergence herbicidal action against VERPE; assay type: in vivo, Veronica persica
# Outline: as §1
# [19] = 20 g/ha, scored visually after 3 weeks vs untreated controls, 100% = plants have died, 0% = like control plants
# [20] = 80 g/ha, scored visually after 3 weeks vs untreated controls (100% = plants have died, 0% = like control plants)
smiles,measurement,setting,value
CCc1c(C(=O)Nc2nnnn2C)ccc(C(F)(F)F)c1C(=O)NCC(F)F [Example 1-276],Pre-emergence action against ABUTH (herbicidal activity),ABUTH [1],100%
same,Pre-emergence action against ABUTH (herbicidal activity in percent),ABUTH [1],100%
same,Pre-emergence action against ALOMY,ALOMY [2],90%
same,Pre-emergence action against ALOMY (herbicidal activity),ALOMY [2],100%
same,Pre-emergence action against AMARE in %,AMARE [3]; [19],90%
same,Pre-emergence action against AMARE in %,AMARE [3]; [20],100%
same,Pre-emergence action against AVEFA in %,AVEFA,90%
same,Pre-emergence action against ECHCG in %,ECHCG [4],100%
same,Pre-emergence action against MATIN in %,MATIN [5]; dosage 20 g/ha,90%
same,Pre-emergence action against MATIN in %,MATIN [5]; dosage 80 g/ha,100%
same,Pre-emergence action against PHBPU in %,PHBPU [6],90%
same,Pre-emergence action against POLCO in %,POLCO; dosage 20 g/ha,80%
same,Pre-emergence action against POLCO in %,POLCO; dosage 80 g/ha,90%
same,Pre-emergence action against SETVI in %,SETVI [7],100%
same,Pre-emergence action against VIOTR in %,VIOTR [8]; dosage 20 g/ha,80%
same,Pre-emergence action against VIOTR in %,VIOTR [8]; dosage 80 g/ha,100%
same,Post-emergence action against ABUTH in %,ABUTH [9]; dosage 5 g/ha,80%
same,Post-emergence action against ABUTH in %,ABUTH [9]; dosage 20 g/ha,80%
same,Post-emergence action against ALOMY in %,ALOMY [10],80%
same,Post-emergence action at 20 g/ha against AMARE in %,AMARE [11],100%
same,Post-emergence action against ECHCG in %,ECHCG [12]; dosage 20 g/ha,80%
same,Post-emergence action against MATIN in %,MATIN [13]; dosage 20 g/ha,80%
same,Post-emergence action against PHBPU in %,PHBPU [14]; dosage 20 g/ha,90%
same,Post-emergence action against SETVI in %,SETVI [15]; dosage 5 g/ha,80%
same,Post-emergence action against SETVI in %,SETVI [15]; dosage 20 g/ha,80%
same,Post-emergence action against VERPE in %,VERPE [16]; 20 g/ha,80%
same,Post-emergence action against VIOTR in %,VIOTR [17],80%
CC(NC(=O)c1c(C(F)(F)F)ccc(C(=O)Nc2nnnn2C)c1C1CC1)C1CC1 (centres unmarked) [Example 1-292],Pre-emergence action against ABUTH (herbicidal activity),ABUTH [1],100%
same,Pre-emergence action against ABUTH (herbicidal activity in percent),ABUTH [1],100%
same,Pre-emergence action against ALOMY,ALOMY [2],80%
same,Pre-emergence action against ALOMY (herbicidal activity),ALOMY [2],90%
same,Pre-emergence action against AMARE in %,AMARE [3]; [19],100%
same,Pre-emergence action against AMARE in %,AMARE [3]; [20],100%
same,Pre-emergence action against ECHCG in %,ECHCG [4],90%
same,Pre-emergence action against MATIN in %,MATIN [5]; dosage 20 g/ha,100%
same,Pre-emergence action against MATIN in %,MATIN [5]; dosage 80 g/ha,100%
same,Pre-emergence action against PHBPU in %,PHBPU [6],80%
same,Pre-emergence action against POLCO in %,POLCO; dosage 80 g/ha,90%
same,Pre-emergence action against SETVI in %,SETVI [7],100%
same,Pre-emergence action against VERPE in %,VERPE [18]; dosage 20 g/ha,100%
same,Pre-emergence action against VERPE in %,VERPE [18]; dosage 80 g/ha,100%
same,Pre-emergence action against VIOTR in %,VIOTR [8]; dosage 20 g/ha,90%
same,Pre-emergence action against VIOTR in %,VIOTR [8]; dosage 80 g/ha,100%
same,Post-emergence action against ABUTH in %,ABUTH [9]; dosage 20 g/ha,80%
same,Post-emergence action against ALOMY in %,ALOMY [10],80%
same,Post-emergence action at 20 g/ha against AMARE in %,AMARE [11],100%
same,Post-emergence action against ECHCG in %,ECHCG [12]; dosage 5 g/ha,80%
same,Post-emergence action against ECHCG in %,ECHCG [12]; dosage 20 g/ha,80%
same,Post-emergence action against MATIN in %,MATIN [13]; dosage 5 g/ha,80%
same,Post-emergence action against MATIN in %,MATIN [13]; dosage 20 g/ha,80%
same,Post-emergence action against PHBPU in %,PHBPU [14]; dosage 5 g/ha,80%
same,Post-emergence action against PHBPU in %,PHBPU [14]; dosage 20 g/ha,80%
same,Post-emergence action against SETVI in %,SETVI [15]; dosage 20 g/ha,90%
same,Post-emergence action against VERPE in %,VERPE [16]; 5 g/ha,80%
same,Post-emergence action against VERPE in %,VERPE [16]; 20 g/ha,90%
same,Post-emergence action against VIOTR in %,VIOTR [17],80%
